Where two headings read alike, the source gives them in different places.
Legend:
Type in all cases: in vitro ADME
[1] = target: T1, UGT2B7 (Homo sapiens, UniProt P16662); assay: Recombinant UGT2B7-catalyzed 4-MU glucuronidation inhibition; settings: pH 7.4, probe 4-methylumbelliferone (4-MU), UGT2B7, 100 μM of compound, 4-MU substrate, read-out: residual activity
T1 construct: purchased BD Gentest Corp. (Woburn, MA, USA); host or cells: baculovirus-infected insect cells
T1 sequence (P16662 24-529): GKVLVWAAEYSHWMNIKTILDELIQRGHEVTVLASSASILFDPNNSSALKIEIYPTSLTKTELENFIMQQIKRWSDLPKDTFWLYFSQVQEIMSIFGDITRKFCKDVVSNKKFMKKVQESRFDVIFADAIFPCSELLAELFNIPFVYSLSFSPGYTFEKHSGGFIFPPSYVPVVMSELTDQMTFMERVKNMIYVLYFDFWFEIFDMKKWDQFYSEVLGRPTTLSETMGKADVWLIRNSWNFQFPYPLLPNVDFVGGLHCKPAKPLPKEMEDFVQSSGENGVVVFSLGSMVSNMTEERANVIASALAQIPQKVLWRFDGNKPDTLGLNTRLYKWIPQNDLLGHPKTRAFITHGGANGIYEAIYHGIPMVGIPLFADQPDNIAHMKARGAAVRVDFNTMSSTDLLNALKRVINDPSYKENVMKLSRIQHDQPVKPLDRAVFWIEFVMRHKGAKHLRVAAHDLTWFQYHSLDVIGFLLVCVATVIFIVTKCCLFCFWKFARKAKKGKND
Excerpt: (§1) 4-Methylumbelliferone (4-MU), 4-methylumbelliferone-β-D-glucuronide (4-MUG), Tris-HCl, 7-hydroxycoumarin, and uridine-5′-diphosphoglucuronic acid (UDPGA) (trisodium salt) were purchased from Sigma-Aldrich (St. Louis, MO). Recombinant human UGT isoforms (UGT1A1, UGT1A3, UGT1A4, UGT1A6, UGT1A7, UGT1A8, UGT1A9, UGT1A10, UGT2B4, UGT2B7, and UGT2B15) expressed in baculovirus-infected insect cells were obtained from BD Gentest Corp. (Woburn, MA, USA). Ophiopogonin D (OD), ophiopogonin D′ (OD′), methylophiopogonanone A (MA), methylophiopogonanone B (MB), and ruscorectal (RU) were purchased from Sichuan Weikeqi Biotechnology Company (Chengdu, Sichuan, China). The purity of these compounds was above 95%. All other reagents were of HPLC grade or of the highest grade commercially available.
(§2) 4-MU, the nonspecific probe substrate for all the UGT isoforms except UGT1A4, was used in the present study to initially screen the inhibition potential of maidong's components towards UGT isoforms as previously reported. In brief, the incubation system (total volume = 200 μL) consisted of recombinant UGTs, 5 mM UDPGA, 5 mM MgCl2, 50 mM Tris-HCl (pH = 7.4), and 4-MU in the absence or presence of different concentrations of maidong's components. The compounds were dissolved in DMSO, and the final concentration of DMSO was below 0.5% (v/v). The used incubation time and protein concentration were previously determined to ensure the reaction rate within the linear range. The 4-MU concentration was equal to known K m or S 50 values for each UGT isoform. After 5 min preincubation at 37°C, the incubation reaction was initiated via adding UDPGA to the mixture system. The reactions were quenched by adding 100 μL acetonitrile with 7-hydroxycoumarin (100 μM) as internal standard. Centrifuged at 20000 ×g for 10 min, an aliquot of supernatant was transferred to an autoinjector vial for HPLC analysis. The HPLC system (Shimadzu, Kyoto, Japan) contained a SCL-10A system controller, two LC-10AT pumps, a SIL-10A autoinjector, and a SPD-10AVP UV detector. Chromatographic separation was carried out using a C18 column (4.6 × 200 mm, 5 μm, Kromasil) at a flow rate of 1 mL/min and UV detector at 316 nm. The mobile phase consisted of acetonitrile (A) and H2O containing 0.5% (v/v) formic acid (B). The following gradient condition was used: 0–15 min, 95–40% B; 15–20 min, 10% B; 20–30 min, 95% B.

[2] = target: T2, UGT1A6 (Homo sapiens, UniProt P19224); assay: Recombinant UGT1A6-catalyzed 4-MU glucuronidation inhibition; settings: for activity at 100 µM / inhibition at 100 µM: human, pH 7.4, probe 4-methylumbelliferone (4-MU); for activity at 100 µM: UGT1A6, 100 μM of compound, 4-MU substrate, read-out: residual activity; for inhibition type: UGT1A6, Dixon and Lineweaver-Burk plots; for inhibition at 100 µM: UGT1A6, at 100 μM, read-out: inhibition percent
T2 construct: purchased BD Gentest Corp. (Woburn, MA, USA); host or cells: baculovirus-infected insect cells
T2 sequence (P19224 27-532): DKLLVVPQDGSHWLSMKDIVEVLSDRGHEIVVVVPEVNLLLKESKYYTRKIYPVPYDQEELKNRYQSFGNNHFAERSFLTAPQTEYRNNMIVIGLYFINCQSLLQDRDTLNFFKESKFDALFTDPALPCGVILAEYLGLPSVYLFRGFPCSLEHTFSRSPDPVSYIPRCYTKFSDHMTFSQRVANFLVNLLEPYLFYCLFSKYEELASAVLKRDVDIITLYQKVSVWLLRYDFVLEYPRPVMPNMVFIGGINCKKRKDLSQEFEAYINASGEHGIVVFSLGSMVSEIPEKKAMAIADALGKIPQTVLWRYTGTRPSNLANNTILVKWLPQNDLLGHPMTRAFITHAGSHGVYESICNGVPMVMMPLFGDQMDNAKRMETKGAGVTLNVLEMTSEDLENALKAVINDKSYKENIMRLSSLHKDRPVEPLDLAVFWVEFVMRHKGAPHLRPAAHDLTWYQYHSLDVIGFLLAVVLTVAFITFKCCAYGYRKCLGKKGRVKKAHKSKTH
Excerpt: as §1, §2
(§3) To determine the inhibition kinetic type and parameters (K i), the reaction velocity (V) was determined at multiple concentrations of maidong's components and 4-MU (or TFP). Dixon plot and Lineweaver-Burk plot were used to fit the data. The inhibition kinetic type was evaluated through determining the intersection point in the Dixon and Lineweaver-Burk plots.
(§4) K m value is the substrate concentration in which the velocity reached half of the maximum velocity (V max) of the reaction. K i value is the inhibition constant.

[3] = target: T3, UGT1A10 (Homo sapiens, UniProt Q9HAW8); assay: Recombinant UGT1A10-catalyzed 4-MU glucuronidation inhibition; settings: for activity at 100 µM: UGT1A10, 100 μM of compound, 4-MU substrate, read-out: residual activity
T3 construct: purchased BD Gentest Corp. (Woburn, MA, USA); host or cells: baculovirus-infected insect cells
T3 sequence (Q9HAW8 26-530): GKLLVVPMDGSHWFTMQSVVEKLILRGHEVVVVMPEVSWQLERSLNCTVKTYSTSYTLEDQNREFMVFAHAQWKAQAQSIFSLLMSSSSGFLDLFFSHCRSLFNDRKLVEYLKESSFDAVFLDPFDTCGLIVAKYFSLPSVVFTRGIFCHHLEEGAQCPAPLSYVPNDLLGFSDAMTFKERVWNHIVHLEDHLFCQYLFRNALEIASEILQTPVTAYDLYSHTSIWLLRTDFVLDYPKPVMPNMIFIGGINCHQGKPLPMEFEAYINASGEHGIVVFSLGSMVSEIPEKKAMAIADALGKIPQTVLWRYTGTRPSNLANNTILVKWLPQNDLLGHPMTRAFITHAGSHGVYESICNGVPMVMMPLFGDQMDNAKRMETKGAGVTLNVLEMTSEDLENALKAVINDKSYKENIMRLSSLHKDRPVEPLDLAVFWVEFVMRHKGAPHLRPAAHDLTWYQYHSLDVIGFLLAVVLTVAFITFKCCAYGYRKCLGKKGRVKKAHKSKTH
Excerpt: as §1, §2, §3, §4

[4] = human, pH 7.4, probe 4-methylumbelliferone (4-MU)

| Structure (SMILES) | activity at 100 µM [1] [%] | activity at 100 µM [2] [%] | activity at 100 µM [3, 4] [%] | Ki [2] [µM] | inhibition type [2] | inhibition at 100 µM [2] [%] | Ki ([2]; UGT1A6-catalyzed 4-MU glucuronidation, read-out: inhibition kinetic parameter (Ki)) [µM] | Ki ([3]; UGT1A10-catalyzed 4-MU glucuronidation, read-out: inhibition kinetic parameter (Ki)) [µM] | inhibition type ([3]; UGT1A10, Dixon and Lineweaver-Burk plots) | inhibition at 100 µM ([3]; human, pH 7.4, probe 4-methylumbelliferone (4-MU), UGT1A10, at 100 μM, read-out: inhibition percent) [%] |
| --- | --- | --- | --- | --- | --- | --- | --- | --- | --- | --- |
| Cc1c(O)c(C)c2c(c1O)C(=O)[C@H](Cc1ccc3c(c1)OCO3)CO2 [MA, methylophiopogonanone A] | 23.3 ± 16.7 | 67 ± 1.7 | 70 ± 9.3 |  |  |  |  |  |  |  |
| COc1ccc(C[C@@H]2COc3c(C)c(O)c(C)c(O)c3C2=O)cc1 [MB, methylophiopogonanone B] | 82.8 ± 14.5 | 65.3 ± 2 | 96.9 ± 7.3 |  |  |  |  |  |  |  |
| C[C@@H]1CC[C@@]2(OC1)O[C@H]1C[C@H]3[C@@H]4CC=C5C[C@@H](O)C[C@@H](O[C@@H]6O[C@H](C)[C@H](O)[C@H](O[C@@H]7OC[C@@H](O)[C@H](O)[C@H]7O)[C@H]6O[C@@H]6O[C@@H](C)[C@H](O)[C@@H](O)[C@H]6O)[C@]5(C)[C@H]4CC[C@]3(C)[C@H]1[C@@H]2C [OD, ophiopogonin D] | 85.4 ± 7.3 | 12.8 ± 3.1 | 26.5 ± 1.5 | 20.6 | noncompetitively inhibited | 87.2 |  |  |  |  |
| C[C@@H]1CC[C@@]2(OC1)O[C@H]1C[C@H]3[C@@H]4CC=C5C[C@@H](O[C@@H]6O[C@H](CO)[C@@H](O)[C@H](O[C@@H]7OC[C@@H](O)[C@H](O)[C@H]7O)[C@H]6O[C@@H]6O[C@@H](C)[C@H](O)[C@@H](O)[C@H]6O)CC[C@]5(C)[C@H]4CC[C@]3(C)[C@H]1[C@@H]2C [OD′, ophiopogonin D′] | 77.4 ± 7.1 | 12.1 ± 1.9 | 19.8 ± 3.2 |  | noncompetitively inhibited | 87.9 | 5.3 | 9 | noncompetitively inhibited | 80.2 |
| CC1CCC2(OC1)OC1CC3C4CC=C5CC(O)CC(O)C5(C)C4CCC3(C)C1C2C (stereo not drawn) [RU, ruscorectal] | 125 ± 59 | 65.9 ± 11.6 | 82 ± 5.2 |  |  |  |  |  |  |  |
